Laboratory results reported in patent US20210214681A1, “STEM CELL-DERIVED HUMAN MICROGLIAL CELLS, METHODS OF MAKING AND METHODS OF USE” (MEMORIAL SLOAN-KETTERING CANCER CENTER, priority 2018, published 2021).

What was measured:
rodent GSK3β homologs = conditions: cited from earlier work
hPSCs = test: hPSC differentiation to mesoderm and KDR+CD235a+ primitive hematopoietic precursors; type: cell-based, human
Excerpt: Inhibition of Wnt signaling biases early mesoderm cells from the posterior primitive streak to generate KDR+CD235a+ primitive hematopoietic precursors (Sturgeon et al., Nat. Biotechnol. (2014); 32, 554-561). These precursors will go on to initiate primitive hematopoiesis in the yolk sac, giving rise to early EMPs. In this microglial differentiation scheme, the present example adapted Wnt inhibition to induce primitive hematopoiesis from hPSCs in a monolayer strategy. […] These cells were also KDR+ and CD235a+ (primitive hematopoietic precursors) by day 4 of differentiation by flow cytometry. […] Next, the present example developed the timeline of hemogenic endothelium and hematopoietic cell. Hemogenic endothelium developed after 1 day of replating the sorted KDR^+CD235A^+ primitive hematopoietic precursors. These cells gave rise to hematopoietic cells in suspension over 7 days in culture, gradually becoming more numerous in culture (FIG. 2). In order to validate hemogenic endothelium by VE-cadherin+staining, at 1 day post-sort, the cells were positive for VE-cadherin by immunofluorescence confirming that they were hemogenic endothelium, and the cells in suspension had characteristic small nuclei of hematopoietic cells (FIG. 3). […]

WNT pathway = conditions: at the level of the pathway activator Porcupine; read-out: IC50 WNT pathway inhibition; cited from earlier work
SW480 cells = conditions: cited from earlier work
pMacs = test: Serum-free maturation of pMacs into macrophages; type: cell-based, human; conditions: pMacs in IMDM/F12/N2/B27 without serum
Excerpt: In the second strategy to generate microglia, the EMPs were matured into macrophages with 10% serum and M-CSF and IL-34. They developed the mature macrophage marker Cd11b by day 4 in culture, and the mature spindle morphology by day 11 (FIG. 10). All the cells that persisted in culture in serum and M-CSF and IL-34 after 11 days were CD45^+, indicating they were all hematopoietic. The majority also were positive for mature macrophage markers such as CX3CR1, CD14, Cd11b, and dectin by flow cytometry analysis (FIG. 11). The pMacs can also be matured into macrophages without serum, using IMDM/F12/N2/B27 in place of serum along with M-CSF and IL-34 (FIG. 12). […] Macrophage cells co-cultured with neurons yielded microglial cells with branching morphology and increased Iba1 immunofluorescence staining (FIG. 13). Iba1 was increased in microglial cells from macrophages, so the cells had transitioned into microglial identity through co-culture with neurons. Co-cultured pMac-derived microglia (EMP co-culture) and pMac-macrophage derived microglia (EMP-macrophage co-culture) share expression of key microglial genes with human fetal microglia (FIG. 14). Quantitative PCR of RNA from the two different strategies to derive microglia shared gene expression of a panel of key microglial genes with RNA from human fetal microglia (commercial source).

[1] = test system: hPSC-derived microglial cells; test: Amyloid-beta phagocytosis by hPSC-derived microglial cells (FACS); type: cell-based, human; conditions: flow cytometry
Method: (§1) hPSC-derived microglia were used to model two neurodegenerative diseases, Alzheimer's and Amyotrophic Lateral Sclerosis (ALS). Mixed cultures of hPSC-derived microglia and Alzheimer's iPSC-derived neurons allowed to observe microglial activation in the disease culture, particularly with respect to increased complement C3 release. […] C3 was measured via ELISA. Additionally, GM-C SF diminished the C3 release in all cultures, both Alzheimer's and control (FIG. 20). […] Amyloid-β burden was decreased in microglial co-cultures with selectivity for amyloid-42 peptide (FIG. 21). […] Increased fluorescence of 42-488 inside microglial cells indicated increased uptake (FIG. 22). […] Switching fluorophores yielded similar result: amyloid-beta 42 was taken up more by microglial cells (FIG. 23). The fluorophores representing amyloid 42 and 40 were switched to make sure the effect of increased 42 brightness within cells was not due to a technical fluorophore brightness effect. Even with the switched fluorophores, in this experiment 42 was tagged to 555 and 40 to 488, there was more 42 brightness within microglial cells via immunofluorescence, corroborating the previous results that microglial cells phagocytosed amyloid-beta 42 selectively.

[2] = test system: complement C3 release from hPSC-derived microglia cultures; test: C3 release in Alzheimer's and H9 control co-cultures (ELISA); type: cell-based, human; conditions: all cultures, both Alzheimer's and control
Method: as §1
Culture supernatants were analyzed for C3 using the Millipore Luminex Multiplex Kit on the FlexMap 3D system. […]

For Cc1c[nH]c(-c2cnc(NCCNc3ccc(C#N)cn3)nc2-c2ccc(Cl)cc2Cl)n1 [CHIR99021, 6-(2-(4-(2,4-dichlorophenyl)-5-(4-methyl-1H-imidazol-2-yl)pyrimidin-2-ylamino)ethylamino)nicotinonitrile], which “IC50 values against rodent GSK3β homologs” value (rodent GSK3β homologs) is on record?
Its value is “nanomolar”.

What about the “percentage of primitive hematopoietic precursors (KDR+CD235a+)” value (hPSCs; 18 hr at 3 uM followed by Wnt inhibition via IWP2 at 3 uM, flow cytometry) of the same molecule?
The value was “highest percentage”.

What about the “early mesoderm marked by Brachyury (T)” value (hPSCs; eighteen hours of Wnt activation, immunofluorescence) of the same molecule?
Its value is “gave rise to early mesoderm”.

With Cc1ccc2nc(NC(=O)CSc3nc4c(c(=O)n3-c3ccccc3)SCC4)sc2c1 [IWP-2, N-(6-methyl-1,3-benzothiazol-2-yl)-2-[(4-oxo-3-phenyl-6,7-dihydrothieno[3,2-d]pyrimidin-2-yl)thio]acetamide] as the molecule, how does the IC50 (WNT pathway) read?
Its IC50 is 27 nM.

Which “degradation of β-catenin” value (SW480 cells) does the source give for Oc1nc(-c2ccc(C(F)(F)F)cc2)nc2c1CSCC2 [XAV939] here?
Its value is “promotes the degradation of β-catenin”.

What about the “protein levels of the axin-GSK3β complex” value (SW480 cells) of the same molecule?
Its value is “increases”.

Which “cell yield / cell division and appearance” value (pMacs) does the source give for “GM-CSF: granulocyte-macrophage colony-stimulating factor” here?
Its value is “allowed division of the cells as well but the resulting cells appeared more granular and activated”.

And the “phagocytosis of amyloid-beta 40” value [1]?
The value was “increased”.

And the “phagocytosis of amyloid-beta 42” value [1]?
Its value is “increased”.

And the C3 release [2]?
The C3 release was “diminished”.
